# Source: patent US12398120B2, “Substituted hydantoinamides as ADAMTS7 antagonists” (BAYER AKTIENGESELLSCHAFT, priority 2019, dated 2025)
# Molecular target: ADAMTS4 (Homo sapiens (Human), UniProt O75173)
# Experiment: Selectivity assay for ADAMTS-7 modulators: ADAMTS4 (FRET substrate)
# Assay type: biochemical
# Conditions: ADAMTS4 (R&D 4307-AD) 50 nM, substrate Dabcyl-EEVKAKVQPY-Glu(Edans)-NH2 1 μM, 120 min, 32° C.
# Summary of the method: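 Activity read as rising fluorescence after a FRET substrate is cleaved by human ADAMTS4, with reactions started by substrate addition to wells holding compound or DMSO. Percent inhibition plotted against concentration gave IC50.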
# ADAMTS4, sequence (O75173 213-685): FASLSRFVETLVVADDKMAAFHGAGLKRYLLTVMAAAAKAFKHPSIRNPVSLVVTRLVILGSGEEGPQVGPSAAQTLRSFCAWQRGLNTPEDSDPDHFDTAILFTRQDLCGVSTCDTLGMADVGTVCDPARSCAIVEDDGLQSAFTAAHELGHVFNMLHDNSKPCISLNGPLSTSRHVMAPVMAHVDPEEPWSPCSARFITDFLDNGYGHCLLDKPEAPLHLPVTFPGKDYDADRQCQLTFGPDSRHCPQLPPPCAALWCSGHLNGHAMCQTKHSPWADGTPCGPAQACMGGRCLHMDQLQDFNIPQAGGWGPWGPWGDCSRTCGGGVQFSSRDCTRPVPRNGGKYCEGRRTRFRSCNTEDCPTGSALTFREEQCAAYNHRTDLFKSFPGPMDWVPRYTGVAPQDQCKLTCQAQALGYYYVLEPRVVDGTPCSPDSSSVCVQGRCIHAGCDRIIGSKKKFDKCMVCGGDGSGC
row,SMILES,IC50
1,"O=C1NC(=O)C(CNC(=O)c2ccccc2-c2ccc(C(F)(F)F)cc2)(C2CC(F)(F)C2)N1 (stereo not drawn) [Example 248, Ent-N-{[4-(3,3-Difluorocyclobutyl)-2,5-Dioxoimidazolidin-4-Yl]Methyl}-4′-(Trifluoromethyl)[Biphenyl]-2-Carboxamide]",> 50 µM
2,"Cc1ncsc1C1(CNC(=O)c2cc(F)ccc2-c2ccc(C(F)(F)F)cc2)NC(=O)NC1=O (single isomer, unassigned; ent-4) [Example 11, Ent-4-Fluoro-N-{[4-(4-Methyl-1,3-Thiazol-5-Yl)-2,5-Dioxoimidazolidin-4-Yl]Methyl}-4′-(Trifluoromethyl)[Biphenyl]-2-Carboxamide]",5.9 µM
3,"CCc1ccc(-c2cc(F)ccc2C(=O)NC[C@@]2(C3CC3)NC(=O)NC2=O)cc1 [Example 110, N-{[(4R)-4-Cyclopropyl-2,5-Dioxoimidazolidin-4-Yl]Methyl}-4′-Ethyl-5-Fluoro[Biphenyl]-2-Carboxamide]",7.9 µM
4,"O=C1NC(=O)[C@](CNC(=O)c2ccccc2-c2ccc(C(F)F)cc2)(C2CC2)N1 [Example 122, N-{[(4R)-4-Cyclopropyl-2,5-Dioxoimidazolidin-4-Yl]Methyl}-4′-(Difluoromethyl)[Biphenyl]-2-Carboxamide]",7.9 µM
5,"Cc1cc(C2(CNC(=O)c3ccccc3-c3ccc(C(F)(F)F)cc3)NC(=O)NC2=O)n(C)n1 (racemic) [Example 275, Rac-N-{[4-(1,3-Dimethyl-1H-Pyrazol-5-Yl)-2,5-Dioxoimidazolidin-4-Yl]Methyl}-4′-(Trifluoromethyl)[Biphenyl]-2-Carboxamide]",9.1 µM
6,"Cc1ccc(-c2ccccc2C(=O)NC[C@@]2(C3CC3)NC(=O)NC2=O)cn1 [Example 228, N-{[(4R)-4-Cyclopropyl-2,5-Dioxoimidazolidin-4-Yl]Methyl}-2-(6-Methylpyridin-3-Yl)Benzamide]",20 µM
7,"Cc1nc(C)c(C2(CNC(=O)c3ccccc3-c3ccc(C(F)(F)F)nc3)NC(=O)NC2=O)s1 (racemic) [Example 34, Rac-N-{[4-(2,4-Dimethyl-1,3-Thiazol-5-Yl)-2,5-Dioxoimidazolidin-4-Yl]Methyl}-2-[6-(Trifluoromethyl)Pyridin-3-Yl]Benzamide]",8.9 µM
8,"Cc1scnc1C1(CNC(=O)c2cc(F)ccc2-c2ccc(Cl)cc2)NC(=O)NC1=O (single isomer, unassigned; ent-4) [Example 174, Ent-4′-Chloro-4-Fluoro-N-{[4-(5-Methyl-1,3-Thiazol-4-Yl)-2,5-Dioxoimidazolidin-4-Yl]Methyl}[Biphenyl]-2-Carboxamide]",2.6 µM
9,"Cn1nccc1C1(CNC(=O)c2ccccc2-c2ccc(C(F)(F)F)nc2)NC(=O)NC1=O (stereo not drawn) [Example 190, Ent-N-{[4-(1-Methyl-1H-Pyrazol-5-Yl)-2,5-Dioxoimidazolidin-4-Yl]Methyl}-2-[6-(Trifluoromethyl)Pyridin-3-Yl]Benzamide]",12 µM
10,"Cc1cn(C)nc1C1(CNC(=O)c2ccccc2-c2ccc(C(F)(F)F)nc2)NC(=O)NC1=O (stereo not drawn) [Example 72, Ent-N-{[4-(1,4-Dimethyl-1H-Pyrazol-3-Yl)-2,5-Dioxoimidazolidin-4-Yl]Methyl}-2-[6-(Trifluoromethyl)Pyridin-3-Yl]Benzamide]",6.9 µM
11,"Cn1nccc1C1(CNC(=O)c2cccc(Cl)c2-c2ccc(C(F)(F)F)cc2)NC(=O)NC1=O (single isomer, unassigned; ent-6) [Example 310, Ent-6-Chloro-N-{[4-(1-Methyl-1H-Pyrazol-5-Yl)-2,5-Dioxoimidazolidin-4-Yl]Methyl}-4′-(Trifluoromethyl)[Biphenyl]-2-Carboxamide]",1.9 µM
12,"Cc1ccc(C(=O)NCC2(C(C)C)NC(=O)NC2=O)c(-c2ccc(C(F)(F)F)cc2)c1 (stereo not drawn) [Example 203, Ent-N-[(4-Isopropyl-2,5-Dioxoimidazolidin-4-Yl)Methyl]-5-Methyl-4′-(Trifluoromethyl)[Biphenyl]-2-Carboxamide]",46 µM
13,"CC1(CNC(=O)c2ccccc2-c2ccc(C(F)(F)F)cc2)NC(=O)NC1=O (racemic) [Example 95, Rac-N-[(4-Methyl-2,5-Dioxoimidazolidin-4-Yl)Methyl]-4′-(Trifluoromethyl)[Biphenyl]-2-Carboxamide]",> 50 µM
14,"Cc1scnc1C1(CNC(=O)c2ccccc2-c2ccc(Cl)cc2)NC(=O)NC1=O (single isomer, unassigned; ent-4) [Example 172, Ent-4′-Chloro-N-{[4-(5-Methyl-1,3-Thiazol-4-Yl)-2,5-Dioxoimidazolidin-4-Yl]Methyl}[Biphenyl]-2-Carboxamide]",3.1 µM
15,"Cc1cn(C)nc1C1(CNC(=O)c2ccccc2-c2ccc(C(F)(F)F)nc2)NC(=O)NC1=O (racemic) [Example 35, Rac-N-{[4-(1,4-Dimethyl-1H-Pyrazol-3-Yl)-2,5-Dioxoimidazolidin-4-Yl]Methyl}-2-[6-(Trifluoromethyl)Pyridin-3-Yl]Benzamide]",10 µM
16,"Cc1ccc(C(=O)NCC2(c3ncsc3C)NC(=O)NC2=O)c(-c2ccc(C(F)(F)F)cc2)c1 (single isomer, unassigned; ent-5) [Example 168, Ent-5-Methyl-N-{[4-(5-Methyl-1,3-Thiazol-4-Yl)-2,5-Dioxoimidazolidin-4-Yl]Methyl}-4′-(Trifluoromethyl)[Biphenyl]-2-Carboxamide]",1.9 µM
17,"CCC1(CNC(=O)c2ccccc2-c2ccc(C(F)(F)F)cc2)NC(=O)NC1=O (racemic) [Example 81, Rac-N-[(4-Ethyl-2,5-Dioxoimidazolidin-4-Yl)Methyl]-4′-(Trifluoromethyl)[Biphenyl]-2-Carboxamide]",> 50 µM
18,"Cn1nccc1C1(CNC(=O)c2ccc(Cl)cc2-c2ccc(C(F)(F)F)nc2)NC(=O)NC1=O (single isomer, unassigned; ent-4) [Example 289, Ent-4-Chloro-N-{[4-(1-Methyl-1H-Pyrazol-5-Yl)-2,5-Dioxoimidazolidin-4-Yl]Methyl}-2-[6-(Trifluoromethyl)Pyridin-3-Yl]Benzamide]",6.3 µM
19,"O=C1NC(=O)C(CNC(=O)c2ccc(F)cc2-c2ccc(Cl)cc2)(c2ncccc2C(F)(F)F)N1 (racemic) [Example 241, Rac-4′-Chloro-N-({2,5-Dioxo-4-[3-(Trifluoromethyl)Pyridin-2-Yl]Imidazolidin-4-Yl}Methyl)-5-Fluoro[Biphenyl]-2-Carboxamide]",41 µM
20,"O=C1NC(=O)C(CNC(=O)c2ccc(F)cc2-c2ccc(Cl)cc2)(c2ccnn2C(F)F)N1 (racemic) [Example 257, Rac-4′-Chloro-N-({4-[1-(Difluoromethyl)-1H-Pyrazol-5-Yl]-2,5-Dioxoimidazolidin-4-Yl}Methyl)-5-Fluoro[Biphenyl]-2-Carboxamide]",11 µM
21,"O=C1NC(=O)[C@](CNC(=O)c2cc(F)c(F)cc2-c2ccc(C3CC3(F)F)cc2)(C2CC2)N1 (stereo partly drawn) [Example 144, N-{[(4R)-4-Cyclopropyl-2,5-Dioxoimidazolidin-4-Yl]Methyl}-4′-(2,2-Difluorocyclopropyl)-4,5-Difluoro[1,1′-Biphenyl]-2-Carboxamide]",25 µM
22,"Cn1ccnc1C1(CNC(=O)c2cc(F)c(F)cc2-c2ccc(C(F)(F)F)cc2)NC(=O)NC1=O (single isomer, unassigned; ent-4) [Example 154, Ent-4,5-Difluoro-N-{[4-(1-Methyl-1H-Imidazol-2-Yl)-2,5-Dioxoimidazolidin-4-Yl]Methyl}-4′-(Trifluoromethyl)[Biphenyl]-2-Carboxamide]",3.95 µM
